From article PMC12196347, “Evaluating Triazole-Substituted Pyrrolopyrimidines as CSF1R Inhibitors” (Molecules, 2025)
Read-outs that look alike come from different tables or passages of the source.

How the values were obtained:
[1] = tested on: CSF1R Ba/F3 cells; experiment: Cell viability assay, Ba/F3 cells engineered to be dependent on CSF1R; assay type: cell-based; conditions: Mus musculus, BaF3, Ba/F3 cells dependent on CSF1R, duplicate measurements
[2] = target: CSF1R (Homo sapiens, UniProt P07333); experiment: CSF1R enzymatic IC50, Z-LYTE assay platform; assay type: biochemical
[3] = tested on: panel of 49 kinases; experiment: Selectivity score from the kinase panel; assay type: biochemical; conditions: 1000 nM
[4] = target: T1, ALK (Homo sapiens, UniProt Q9UM73); experiment: Kinase panel profiling: ALK; assay type: biochemical; conditions: ATP equal to KM
T1 construct: purchased Thermo Fisher Scientific (Invitrogen) SelectScreen (Z'-LYTE)

[5] = target: T2, AURKA (Aurora A) (Homo sapiens, UniProt O14965); experiment: Kinase panel profiling: AURKA; assay type: biochemical; conditions: ATP equal to KM
T2 construct: purchased Thermo Fisher Scientific (Invitrogen) SelectScreen (Z'-LYTE)
T2 sequence (O14965 1-403): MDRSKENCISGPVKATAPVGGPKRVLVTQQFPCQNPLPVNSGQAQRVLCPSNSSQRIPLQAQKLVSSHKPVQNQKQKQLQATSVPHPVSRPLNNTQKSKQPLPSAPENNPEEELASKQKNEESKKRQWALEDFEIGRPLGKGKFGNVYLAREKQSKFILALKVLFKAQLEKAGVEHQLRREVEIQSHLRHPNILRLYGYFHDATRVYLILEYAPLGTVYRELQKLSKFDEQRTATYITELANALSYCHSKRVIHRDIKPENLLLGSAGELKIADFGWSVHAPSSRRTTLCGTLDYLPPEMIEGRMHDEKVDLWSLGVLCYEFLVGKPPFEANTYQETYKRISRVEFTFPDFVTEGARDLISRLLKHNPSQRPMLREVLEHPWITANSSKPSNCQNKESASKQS

[6] = target: T3, AXL (Homo sapiens, UniProt P30530); experiment: Kinase panel profiling: AXL; assay type: biochemical; conditions: ATP equal to KM
T3 construct: purchased Thermo Fisher Scientific (Invitrogen) SelectScreen (Z'-LYTE)

[7] = target: T4, BTK (Homo sapiens, UniProt Q06187); experiment: Kinase panel profiling: BTK; assay type: biochemical; conditions: ATP equal to KM
T4 construct: purchased Thermo Fisher Scientific (Invitrogen) SelectScreen (Z'-LYTE)

[8] = target: T5, CDK1/cyclin B (Homo sapiens, UniProt P06493); experiment: Kinase panel profiling: CDK1/cyclin B; assay type: biochemical; conditions: ATP equal to KM
T5 construct: purchased Thermo Fisher Scientific (Invitrogen) SelectScreen (Z'-LYTE)

[9] = target: T6, ERBB2 (HER2) (Homo sapiens, UniProt P04626); experiment: Kinase panel profiling: ERBB2; assay type: biochemical; conditions: ATP equal to KM
T6 construct: purchased Thermo Fisher Scientific (Invitrogen) SelectScreen (Z'-LYTE)

[10] = target: T7, FLT1 (VEGFR1) (Homo sapiens, UniProt P17948); experiment: Kinase panel profiling: FLT1; assay type: biochemical; conditions: ATP equal to KM
T7 construct: purchased Thermo Fisher Scientific (Invitrogen) SelectScreen (Z'-LYTE)

[11] = target: T8, FLT3 (Homo sapiens, UniProt P36888); experiment: Kinase panel profiling: FLT3; assay type: biochemical; conditions: ATP equal to KM
T8 construct: purchased Thermo Fisher Scientific (Invitrogen) SelectScreen (Z'-LYTE)
T8 sequence (P36888 27-993): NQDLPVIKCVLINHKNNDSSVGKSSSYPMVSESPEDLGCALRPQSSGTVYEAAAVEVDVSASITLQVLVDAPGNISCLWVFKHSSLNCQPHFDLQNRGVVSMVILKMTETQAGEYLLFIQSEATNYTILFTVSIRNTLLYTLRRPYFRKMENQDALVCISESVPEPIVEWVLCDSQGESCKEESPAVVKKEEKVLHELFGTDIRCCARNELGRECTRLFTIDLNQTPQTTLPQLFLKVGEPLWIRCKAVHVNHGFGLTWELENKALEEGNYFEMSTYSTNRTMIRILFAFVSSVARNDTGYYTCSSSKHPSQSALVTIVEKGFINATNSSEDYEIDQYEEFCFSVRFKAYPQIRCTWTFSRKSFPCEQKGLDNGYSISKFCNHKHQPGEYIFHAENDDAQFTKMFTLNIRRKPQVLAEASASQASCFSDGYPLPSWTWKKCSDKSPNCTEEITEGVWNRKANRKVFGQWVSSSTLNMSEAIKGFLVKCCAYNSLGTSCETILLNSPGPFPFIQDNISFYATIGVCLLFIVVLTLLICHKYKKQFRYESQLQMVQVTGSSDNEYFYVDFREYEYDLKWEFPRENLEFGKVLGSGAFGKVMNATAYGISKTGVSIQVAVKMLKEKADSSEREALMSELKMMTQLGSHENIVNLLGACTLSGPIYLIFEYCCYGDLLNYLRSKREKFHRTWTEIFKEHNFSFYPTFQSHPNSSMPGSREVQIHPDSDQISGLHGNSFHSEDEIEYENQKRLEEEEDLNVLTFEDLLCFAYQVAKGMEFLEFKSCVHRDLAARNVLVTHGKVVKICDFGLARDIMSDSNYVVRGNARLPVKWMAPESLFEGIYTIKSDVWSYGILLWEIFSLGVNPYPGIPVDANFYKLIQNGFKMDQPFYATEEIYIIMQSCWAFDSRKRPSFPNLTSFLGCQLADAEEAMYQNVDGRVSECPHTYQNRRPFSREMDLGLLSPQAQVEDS

[12] = target: T9, HCK (Homo sapiens, UniProt P08631); experiment: Kinase panel profiling: HCK; assay type: biochemical; conditions: ATP equal to KM
T9 construct: purchased Thermo Fisher Scientific (Invitrogen) SelectScreen (Z'-LYTE)

[13] = target: T10, JAK2 (Homo sapiens, UniProt O60674); experiment: Kinase panel profiling: JAK2; assay type: biochemical; conditions: ATP equal to KM
T10 construct: purchased Thermo Fisher Scientific (Invitrogen) SelectScreen (Z'-LYTE)

[14] = target: T11, LYN A (Homo sapiens, UniProt P07948); experiment: Kinase panel profiling: LYN A; assay type: biochemical; conditions: ATP equal to KM
T11 construct: purchased Thermo Fisher Scientific (Invitrogen) SelectScreen (Z'-LYTE)

[15] = target: T12, MINK1 (Homo sapiens, UniProt Q8N4C8); experiment: Kinase panel profiling: MINK1; assay type: biochemical; conditions: ATP equal to KM
T12 construct: purchased Thermo Fisher Scientific (Invitrogen) SelectScreen (Z'-LYTE)

[16] = target: TEK (Tie2) (Homo sapiens, UniProt Q02763); experiment: Kinase panel profiling: TEK; assay type: biochemical; conditions: ATP equal to KM
[17] = target: YES1 (Homo sapiens, UniProt P07947); experiment: Kinase panel profiling: YES1; assay type: biochemical; conditions: ATP equal to KM
[18] = 1000 nM test concentration, read-out: Average inhibition (%)
[19] = 1000 nM, first data point, read-out: Inhibition (%)
[20] = 1000 nM, second data point, read-out: Inhibition (%)

T1 sequence (Q9UM73 19-1620): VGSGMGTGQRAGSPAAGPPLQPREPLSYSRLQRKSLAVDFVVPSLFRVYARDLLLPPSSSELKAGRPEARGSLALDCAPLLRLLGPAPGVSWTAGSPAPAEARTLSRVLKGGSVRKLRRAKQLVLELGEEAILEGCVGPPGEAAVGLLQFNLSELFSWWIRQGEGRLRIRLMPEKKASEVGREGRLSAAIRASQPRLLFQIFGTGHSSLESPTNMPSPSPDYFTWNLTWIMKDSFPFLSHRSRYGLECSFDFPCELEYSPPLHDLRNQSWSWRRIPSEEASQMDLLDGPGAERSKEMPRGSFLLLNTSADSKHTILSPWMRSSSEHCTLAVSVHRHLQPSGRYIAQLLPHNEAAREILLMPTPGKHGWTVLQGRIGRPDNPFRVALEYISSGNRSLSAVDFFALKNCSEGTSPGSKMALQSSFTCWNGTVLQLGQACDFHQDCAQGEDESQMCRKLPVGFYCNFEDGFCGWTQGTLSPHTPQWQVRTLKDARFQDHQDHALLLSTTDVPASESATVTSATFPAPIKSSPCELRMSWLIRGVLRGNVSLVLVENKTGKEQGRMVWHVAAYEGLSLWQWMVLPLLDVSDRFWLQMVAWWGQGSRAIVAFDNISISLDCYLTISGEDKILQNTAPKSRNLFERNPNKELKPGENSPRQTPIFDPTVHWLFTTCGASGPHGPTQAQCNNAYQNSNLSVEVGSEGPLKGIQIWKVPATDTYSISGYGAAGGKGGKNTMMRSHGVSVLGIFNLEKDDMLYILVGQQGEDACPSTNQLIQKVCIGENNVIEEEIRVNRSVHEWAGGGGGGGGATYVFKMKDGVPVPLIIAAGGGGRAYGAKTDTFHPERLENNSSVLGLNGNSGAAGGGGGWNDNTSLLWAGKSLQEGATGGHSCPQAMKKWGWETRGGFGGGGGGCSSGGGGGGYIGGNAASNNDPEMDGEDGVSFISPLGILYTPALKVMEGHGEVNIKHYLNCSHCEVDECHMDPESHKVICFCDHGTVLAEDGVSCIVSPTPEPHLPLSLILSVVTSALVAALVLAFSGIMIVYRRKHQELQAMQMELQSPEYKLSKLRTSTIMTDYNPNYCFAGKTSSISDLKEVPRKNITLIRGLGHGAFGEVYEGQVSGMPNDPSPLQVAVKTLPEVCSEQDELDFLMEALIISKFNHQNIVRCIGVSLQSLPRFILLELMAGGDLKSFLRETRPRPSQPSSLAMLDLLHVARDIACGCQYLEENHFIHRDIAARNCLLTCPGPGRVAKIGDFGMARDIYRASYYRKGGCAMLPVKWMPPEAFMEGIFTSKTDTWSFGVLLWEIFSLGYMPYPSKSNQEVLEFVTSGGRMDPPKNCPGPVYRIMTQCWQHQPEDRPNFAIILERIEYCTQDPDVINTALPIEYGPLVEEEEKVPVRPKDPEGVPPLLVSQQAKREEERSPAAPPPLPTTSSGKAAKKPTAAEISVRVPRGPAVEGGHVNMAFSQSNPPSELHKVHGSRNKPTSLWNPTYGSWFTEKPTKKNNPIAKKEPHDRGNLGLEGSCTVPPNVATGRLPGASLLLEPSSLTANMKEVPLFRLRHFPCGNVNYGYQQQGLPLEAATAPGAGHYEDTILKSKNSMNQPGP
Chain of TEK (Tie2) (Q02763 23-1124): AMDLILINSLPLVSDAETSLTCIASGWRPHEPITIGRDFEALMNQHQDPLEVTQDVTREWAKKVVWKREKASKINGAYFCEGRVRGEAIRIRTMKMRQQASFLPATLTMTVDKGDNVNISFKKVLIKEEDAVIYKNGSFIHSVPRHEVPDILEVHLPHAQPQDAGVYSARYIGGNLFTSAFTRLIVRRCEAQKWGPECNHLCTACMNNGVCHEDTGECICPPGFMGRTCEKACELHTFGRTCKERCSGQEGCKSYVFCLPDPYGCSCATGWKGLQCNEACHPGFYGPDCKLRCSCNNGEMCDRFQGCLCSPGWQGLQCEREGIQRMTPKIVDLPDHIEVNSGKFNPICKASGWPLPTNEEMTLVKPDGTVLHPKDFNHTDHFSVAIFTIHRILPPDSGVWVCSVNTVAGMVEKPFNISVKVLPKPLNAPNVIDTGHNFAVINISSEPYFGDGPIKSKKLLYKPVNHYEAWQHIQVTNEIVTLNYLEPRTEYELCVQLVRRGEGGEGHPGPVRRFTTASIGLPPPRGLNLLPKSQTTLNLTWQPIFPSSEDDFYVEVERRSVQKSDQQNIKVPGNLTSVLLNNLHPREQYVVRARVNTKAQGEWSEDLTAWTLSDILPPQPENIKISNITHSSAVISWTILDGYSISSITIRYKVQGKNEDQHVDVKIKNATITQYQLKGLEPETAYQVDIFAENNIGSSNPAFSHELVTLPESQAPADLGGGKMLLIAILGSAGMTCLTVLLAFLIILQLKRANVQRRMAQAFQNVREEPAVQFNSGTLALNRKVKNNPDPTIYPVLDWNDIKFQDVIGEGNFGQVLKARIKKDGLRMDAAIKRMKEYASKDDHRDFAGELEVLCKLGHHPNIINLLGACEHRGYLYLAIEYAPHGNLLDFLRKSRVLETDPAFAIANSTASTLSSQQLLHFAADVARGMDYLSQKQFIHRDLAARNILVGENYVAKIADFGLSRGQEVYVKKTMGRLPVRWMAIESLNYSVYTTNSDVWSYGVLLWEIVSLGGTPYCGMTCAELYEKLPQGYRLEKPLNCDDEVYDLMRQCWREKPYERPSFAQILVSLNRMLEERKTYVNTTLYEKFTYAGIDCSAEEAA
T5 sequence (P06493 whole entry): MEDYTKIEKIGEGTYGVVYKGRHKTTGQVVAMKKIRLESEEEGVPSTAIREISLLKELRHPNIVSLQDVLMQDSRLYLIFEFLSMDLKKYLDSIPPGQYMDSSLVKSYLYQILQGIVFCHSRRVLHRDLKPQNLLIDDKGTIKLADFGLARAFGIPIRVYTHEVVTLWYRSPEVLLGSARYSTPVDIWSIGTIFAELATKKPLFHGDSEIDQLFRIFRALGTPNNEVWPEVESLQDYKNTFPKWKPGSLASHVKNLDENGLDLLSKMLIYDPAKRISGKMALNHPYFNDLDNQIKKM
T5 sequence (P14635 whole entry partner): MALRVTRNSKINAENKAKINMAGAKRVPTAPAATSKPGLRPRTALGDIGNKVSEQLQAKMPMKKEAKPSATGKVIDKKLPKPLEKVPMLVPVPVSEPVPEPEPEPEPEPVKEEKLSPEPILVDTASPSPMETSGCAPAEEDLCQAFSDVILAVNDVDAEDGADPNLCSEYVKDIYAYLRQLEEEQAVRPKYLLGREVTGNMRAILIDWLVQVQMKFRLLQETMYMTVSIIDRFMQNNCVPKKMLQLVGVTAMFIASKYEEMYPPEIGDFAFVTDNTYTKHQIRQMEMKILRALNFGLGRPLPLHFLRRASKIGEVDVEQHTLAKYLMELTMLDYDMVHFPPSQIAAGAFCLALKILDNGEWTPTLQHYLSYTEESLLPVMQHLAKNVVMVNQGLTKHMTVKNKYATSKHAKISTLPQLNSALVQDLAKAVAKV
T7 sequence (P17948 27-1338): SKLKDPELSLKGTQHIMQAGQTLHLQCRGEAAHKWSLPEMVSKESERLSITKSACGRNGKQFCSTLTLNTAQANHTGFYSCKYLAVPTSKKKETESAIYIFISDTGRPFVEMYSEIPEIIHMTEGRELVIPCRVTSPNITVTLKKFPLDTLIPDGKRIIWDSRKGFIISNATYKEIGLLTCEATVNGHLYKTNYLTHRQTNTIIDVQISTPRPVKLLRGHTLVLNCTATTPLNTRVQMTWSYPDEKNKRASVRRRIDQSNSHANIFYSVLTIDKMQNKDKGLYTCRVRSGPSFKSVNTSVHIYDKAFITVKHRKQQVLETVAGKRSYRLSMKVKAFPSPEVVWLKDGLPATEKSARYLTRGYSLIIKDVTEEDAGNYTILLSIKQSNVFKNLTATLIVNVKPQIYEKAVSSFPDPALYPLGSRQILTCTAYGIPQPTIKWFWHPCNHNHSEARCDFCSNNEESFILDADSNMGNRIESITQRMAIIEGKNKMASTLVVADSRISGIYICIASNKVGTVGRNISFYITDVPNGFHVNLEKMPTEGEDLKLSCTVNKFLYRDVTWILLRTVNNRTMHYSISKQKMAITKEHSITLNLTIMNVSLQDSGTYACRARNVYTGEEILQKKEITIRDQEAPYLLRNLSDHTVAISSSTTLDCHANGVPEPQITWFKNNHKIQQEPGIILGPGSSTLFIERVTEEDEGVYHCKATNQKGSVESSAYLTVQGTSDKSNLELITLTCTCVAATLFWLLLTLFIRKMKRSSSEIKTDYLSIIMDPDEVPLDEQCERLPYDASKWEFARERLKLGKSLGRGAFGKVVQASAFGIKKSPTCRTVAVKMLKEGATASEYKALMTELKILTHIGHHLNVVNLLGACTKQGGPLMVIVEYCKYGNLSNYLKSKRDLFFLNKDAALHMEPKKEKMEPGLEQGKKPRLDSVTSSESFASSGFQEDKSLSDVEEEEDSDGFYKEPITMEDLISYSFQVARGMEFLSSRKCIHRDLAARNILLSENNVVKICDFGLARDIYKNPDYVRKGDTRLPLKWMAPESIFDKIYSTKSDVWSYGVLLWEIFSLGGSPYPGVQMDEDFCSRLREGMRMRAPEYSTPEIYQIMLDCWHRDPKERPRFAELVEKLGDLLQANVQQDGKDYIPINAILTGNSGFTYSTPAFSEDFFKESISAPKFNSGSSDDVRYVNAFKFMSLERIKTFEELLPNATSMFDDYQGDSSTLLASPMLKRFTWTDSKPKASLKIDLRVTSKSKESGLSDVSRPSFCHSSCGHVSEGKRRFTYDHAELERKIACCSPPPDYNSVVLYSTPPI

Cc1cccc(CN(C)c2ncnc3[nH]c(-c4cn(Cc5cccnc5)nn4)cc23)c1 [Compound 27a, N-Methyl-N-(3-methylbenzyl)-6-(1-(pyridin-3-ylmethyl)-1H-1,2,3-triazol-4-yl)-7H-pyrrolo[2,3-d]pyrimidin-4-amine]
IC50 [1]: 300 nM
Hill coefficient ([2]; Z-LYTE CSF1R IC50 curve): 0.903
IC50 ([2]; Z-LYTE, 10-point titrations in duplicates, ATP equal to KM ca. 10 µM, read-out: CSF1R enz. IC50): 0.4 ± 0.2 nM
selectivity score (S-score) ([3]; 30% inhibition as threshold): 0.51
selectivity score (S-score) ([3]; 50% inhibition as threshold): 0.35
inhibition at 1 µM [4, 18]: 24%
inhibition at 1 µM [4, 19]: 24%
inhibition at 1 µM [4, 20]: 25%
inhibition at 1 µM [5, 18]: 38%
inhibition at 1 µM [5, 19]: 35%
inhibition at 1 µM [5, 20]: 40%
inhibition at 1 µM [6, 18]: 16%
inhibition at 1 µM [6, 19]: 16%
inhibition at 1 µM [7, 18]: 46%
inhibition at 1 µM [7, 19]: 50%
inhibition at 1 µM [7, 20]: 42%
inhibition at 1 µM [8, 18]: 27%
inhibition at 1 µM [8, 19]: 24%
inhibition at 1 µM [8, 20]: 29%
inhibition at 1 µM [9, 18]: 32%
inhibition at 1 µM [9, 19]: 33%
inhibition at 1 µM [9, 20]: 32%
inhibition at 1 µM [10, 18]: 31%
inhibition at 1 µM [10, 19]: 32%
inhibition at 1 µM [10, 20]: 30%
inhibition at 1 µM [11, 18]: 44%
inhibition at 1 µM [11, 19]: 42%
inhibition at 1 µM [11, 20]: 45%
inhibition at 1 µM [12, 18]: 77%
inhibition at 1 µM [12, 19]: 77%
inhibition at 1 µM [12, 20]: 76%
inhibition at 1 µM [13, 18]: 26%
inhibition at 1 µM [13, 19]: 25%
inhibition at 1 µM [13, 20]: 26%
inhibition at 1 µM [14, 18]: 66%
inhibition at 1 µM [14, 19]: 66%
inhibition at 1 µM [15, 18]: 76%
inhibition at 1 µM [15, 19]: 75%
inhibition at 1 µM [15, 20]: 77%
inhibition at 1 µM [16, 18]: 42%
inhibition at 1 µM [16, 19]: 44%
inhibition at 1 µM [16, 20]: 40%
inhibition at 1 µM [17, 18]: 101%
inhibition at 1 µM [17, 19]: 102%
inhibition at 1 µM [17, 20]: 99%
